In patent publication US8580794B2 (AbbVie Inc., priority 2009, dated 2013):
pKi: −log10 of the molar value.

target: GST-Bc1-2 (Homo sapiens, UniProt P10415); assay: Time Resolved-Fluorescence Resonance Energy Transfer (TR-FRET) Bcl-2 binding assay with F-Bak peptide probe; settings: GST-Bcl-2 1 nM, F-Bak probe 100 nM, Tb-anti-GST 1 nM; '<' = below limit of detection; read-out: TR-FRET Bcl-2 Binding Ki
Sequence (P10415 whole entry): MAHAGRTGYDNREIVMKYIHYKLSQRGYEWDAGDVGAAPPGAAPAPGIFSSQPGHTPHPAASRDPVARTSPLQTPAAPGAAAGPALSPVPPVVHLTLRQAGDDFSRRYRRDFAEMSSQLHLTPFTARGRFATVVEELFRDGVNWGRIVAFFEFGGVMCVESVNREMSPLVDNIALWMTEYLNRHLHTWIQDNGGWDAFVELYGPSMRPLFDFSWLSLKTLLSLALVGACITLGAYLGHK

Row | SMILES | pKi
1 | CC1(C)CCC(CN2CCN(c3ccc(C(=O)NS(=O)(=O)c4ccc(NC[C@@H]5CC[C@@H](O)C5)c([N+](=O)[O-])c4)c(Oc4cnc5[nH]ccc5c4)c3)CC2)=C(c2ccc(Cl)cc2)C1 [Example 156, 4-(4-{[2-(4-chlorophenyl)-4,4-dimethylcyclohex-1-en-1-yl]methyl}piperazin-1-yl)-N-{[4-({[(1R,3R)-3-hydroxycyclopentyl]methyl}amino)-3-nitrophenyl]sulfonyl}-2-(1H-pyrrolo[2,3-b]pyridin-5-yloxy)benzamide] | > 11.00
2 | CC1(C)CCC(CN2CCN(c3ccc(C(=O)NS(=O)(=O)c4ccc(OCC5CCC6(CC5)COC6)c([N+](=O)[O-])c4)c(Oc4cnc5[nH]ccc5c4)c3)CC2)=C(c2ccc(Cl)cc2)C1 [Example 351, 4-(4-{[2-(4-chlorophenyl)-4,4-dimethylcyclohex-1-en-1-yl]methyl}piperazin-1-yl)-N-{[3-nitro-4-(2-oxaspiro[3.5]non-7-ylmethoxy)phenyl]sulfonyl}-2-(1H-pyrrolo[2,3-b]pyridin-5-yloxy)benzamide] | > 11.00
3 | CC(=O)N1CC[C@@H](Nc2ccc(S(=O)(=O)NC(=O)c3ccc(N4CCN(CC5=C(c6ccc(Cl)cc6)CC(C)(C)CC5)CC4)cc3Oc3cnc4[nH]ccc4c3)cc2[N+](=O)[O-])C1 [Example 154, N-[(4-{[(3R)-1-acetylpyrrolidin-3-yl]amino}-3-nitrophenyl)sulfonyl]-4-(4-{[2-(4-chlorophenyl)-4,4-dimethylcyclohex-1-en-1-yl]methyl}piperazin-1-yl)-2-(1H-pyrrolo[2,3-b]pyridin-5-yloxy)benzamide] | > 11.00
4 | CC1(C)CCC(CN2CCN(c3ccc(C(=O)NS(=O)(=O)c4ccc(NCCCN(CC(F)(F)F)C5CC5)c([N+](=O)[O-])c4)c(Oc4cnc5[nH]ccc5c4)c3)CC2)=C(c2ccc(Cl)cc2)C1 [Example 308, 4-(4-{[2-(4-chlorophenyl)-4,4-dimethylcyclohex-1-en-1-yl]methyl}piperazin-1-yl)-N-{[4-({3-[cyclopropyl(2,2,2-trifluoroethyl)amino]propyl}amino)-3-nitrophenyl]sulfonyl}-2-(1H-pyrrolo[2,3-b]pyridin-5-yloxy)benzamide] | 9.85
5 | CC1(C)CC(c2ccc(Cl)cc2)=C(CN2CCN(c3ccc(C(=O)NS(=O)(=O)c4ccc(NCC5CCOCC5)c(S(=O)(=O)C(F)(F)F)c4)c(Oc4cnc5[nH]ccc5c4)c3)CC2)CO1 [Example 43, 4-(4-{[4-(4-chlorophenyl)-6,6-dimethyl-5,6-dihydro-2H-pyran-3-yl]methyl}piperazin-1-yl)-2-(1H-pyrrolo[2,3-b]pyridin-5-yloxy)-N-({4-[(tetrahydro-2H-pyran-4-ylmethyl)amino]-3-[(trifluoromethyl)sulfonyl]phenyl}sulfonyl)benzamide] | 10.92
6 | CC1(C)CCC(CN2CCN(c3ccc(C(=O)NS(=O)(=O)c4cnc(OCCN5CCOCC5)c(C#N)c4)c(Oc4cnc5[nH]ccc5c4)c3)CC2)=C(c2ccc(Cl)cc2)C1 [Example 57, 4-(4-{[2-(4-chlorophenyl)-4,4-dimethylcyclohex-1-en-1-yl]methyl}piperazin-1-yl)-N-{[5-cyano-6-(2-morpholin-4-ylethoxy)pyridin-3-yl]sulfonyl}-2-(1H-pyrrolo[2,3-b]pyridin-5-yloxy)benzamide] | 10.20
7 | CC1(C)CCC(CN2CCN(c3ccc(C(=O)NS(=O)(=O)c4cc(Cl)c(NCC5CCOCC5)c(C#N)c4)c(Oc4cnc5[nH]ccc5c4)c3)CC2)=C(c2ccc(Cl)cc2)C1 [Example 52, N-({3-chloro-5-cyano-4-[(tetrahydro-2H-pyran-4-ylmethyl)amino]phenyl}sulfonyl)-4-(4-{[2-(4-chlorophenyl)-4,4-dimethylcyclohex-1-en-1-yl]methyl}piperazin-1-yl)-2-(1H-pyrrolo[2,3-b]pyridin-5-yloxy)benzamide] | 9.94
